The results in this text go back to ChEMBL document CHEMBL1201862, “PubChem BioAssay data set” (2004).

Test systems include ACHN; NCI/ADR-RES; UO-31; MOLT-4; RXF 393; OVCAR-3; SNB-19; MDA-N; CCRF-CEM; NCI-H460; SNB-75; UACC-62; DU-145; HT-29; BT-549; SF-268; HCT-116; LOX IMVI; OVCAR-5; A498.
Common to all, as to experiment: DTP human tumour cell line panel, 48 h

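Step 1: Grow cells in 96-well plates. Step 2: Expose to compound for 48 hours at 5 concentrations. Step 3: Interpolate endpoints linearly; if unreached, use highest concentration. Here, GI50 denotes the concentration required for 50% inhibition of growth.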 Activity calls are given as the source filed them. No stated cut-off is given here; in the data, active = GI50 up to about 1.1 µM and inactive = higher. A value given as a limit tells only on which side of the number the result lay.

In general, GI50 refers to the concentration at which growth is held to half of that of the control. On to `CC1C(=NO)C(C)C(c2ccccc2)N(N=O)C1c1ccccc1` (stereo unspecified), for which the GI50 is 20.2 µM (inactive) in the test on ACHN; 17.5 µM (inactive) in the test with NCI/ADR-RES; 13.3 µM (inactive) with UO-31; 12.2 µM (inactive) with MOLT-4; 17.1 µM (inactive) with RXF 393; 25.2 µM (inactive) in the test on OVCAR-3. For the same molecule, the GI50 in the test with SNB-19 was 18.3 µM (inactive); with MDA-N, 20.1 µM (inactive); in the test on CCRF-CEM, 28.1 µM (inactive); in the test with NCI-H460 it was 16 µM (inactive); in the test on SNB-75 it was 25.1 µM (inactive); in the test on UACC-62, 13.5 µM (inactive). The GI50 in the test on DU-145 is 30.8 µM (inactive); in the test on HT-29 it was 17.4 µM (inactive); in the test with BT-549, 22.9 µM (inactive); in the test with SF-268, 15 µM (inactive); in the test with HCT-116, 17.5 µM (inactive); in the test on LOX IMVI it was 15.9 µM (inactive).
In the case of `C[C@H](N)C(=O)Nc1ccc(-c2nc3ccccc3s2)cc1Cl`, the GI50 with ACHN was 15.4 µM (inactive); in the test on NCI/ADR-RES it was 30.8 µM (inactive); with UO-31, 10.7 µM (inactive); in the test with MOLT-4 it was 17.7 µM (inactive); in the test on RXF 393, 15.1 µM (inactive); with OVCAR-3, 0.153 µM (active). In addition, the GI50 is 16.3 µM (inactive) in the test on SNB-19; 13.2 µM (inactive) with MDA-N; 0.27 µM (active) with OVCAR-5; 12 µM (inactive) in the test with CCRF-CEM; 0.916 µM (active) in the test with NCI-H460; 16 µM (inactive) with SNB-75. Besides, the GI50 was 16.4 µM (inactive) in the test on UACC-62; 16.6 µM (inactive) in the test with DU-145; 16.7 µM (inactive) in the test on HT-29; 16.3 µM (inactive) in the test on BT-549; 17.9 µM (inactive) in the test on SF-268; 11.6 µM (inactive) with HCT-116. The GI50 in the test with LOX IMVI was 7.82 µM (inactive).
Regarding `COc1ccc(N[C@H](C[S+]([O-])c2ccc(C)cc2)C(F)(F)F)cc1` (stereo partly specified), the GI50 in the test with ACHN, with NCI/ADR-RES, in the test with UO-31, in the test with MOLT-4, in the test with RXF 393 and in the test on OVCAR-3 was > 100 µM (inactive) in each case. The GI50 with SNB-19, in the test on MDA-N, in the test with OVCAR-5, in the test with CCRF-CEM, in the test with NCI-H460 and with SNB-75 was > 100 µM (inactive) throughout. Also, the GI50 with UACC-62, with DU-145, in the test on HT-29, in the test on BT-549, with HCT-116 and in the test on LOX IMVI was > 100 µM (inactive) throughout.
Regarding `C=C(C)[C@@]1(OC(=O)c2cc([N+](=O)[O-])cc([N+](=O)[O-])c2)C[C@@H]2CCCC[C@@H]21`, the GI50 is > 100 µM (inactive) with ACHN; > 100 µM (inactive) in the test on NCI/ADR-RES; 16.4 µM (inactive) with UO-31; > 100 µM (inactive) with MOLT-4; > 100 µM (inactive) in the test with SNB-19; > 100 µM (inactive) in the test on MDA-N. For the same molecule, the GI50 is > 100 µM (inactive) in the test on OVCAR-5; > 100 µM (inactive) with CCRF-CEM; 46.9 µM (inactive) in the test on NCI-H460; > 100 µM (inactive) in the test on SNB-75; > 100 µM (inactive) in the test on UACC-62; > 100 µM (inactive) in the test on DU-145. For the same molecule, the GI50 with HT-29 is 47.9 µM (inactive); in the test on BT-549 it was > 100 µM (inactive); in the test with SF-268, > 100 µM (inactive); with HCT-116 it was > 100 µM (inactive); in the test on LOX IMVI, > 100 µM (inactive).
With `ClCCN1CCC2(CC1)SSC1(CCN(CCCl)CC1)S2`, the GI50 in the test on ACHN is 40.5 µM (inactive); in the test with NCI/ADR-RES it was 49.7 µM (inactive); in the test with UO-31, 65.6 µM (inactive); with MOLT-4 it was 41.5 µM (inactive); in the test with OVCAR-3, 19.7 µM (inactive); with SNB-19 it was 48 µM (inactive). The GI50 with MDA-N is > 100 µM (inactive); with OVCAR-5 it was 29.6 µM (inactive); in the test on CCRF-CEM, 15 µM (inactive); in the test on NCI-H460 it was 29.3 µM (inactive); in the test on SNB-75, 59.3 µM (inactive); with UACC-62, 20.8 µM (inactive). The GI50 in the test on DU-145 was 37.2 µM (inactive); in the test on A498 it was 63.4 µM (inactive); in the test on HT-29, 48 µM (inactive); in the test with BT-549 it was 35.8 µM (inactive); in the test on SF-268, 10.8 µM (inactive); with HCT-116, 45.9 µM (inactive). Also, the GI50 with LOX IMVI was 31.8 µM (inactive).
Regarding `COc1cccc(N2C(=O)/C(=C\c3ccccc3)SC2c2cc(OC)c(OC)c(OC)c2)c1` (stereo unspecified), the GI50 is > 100 µM (inactive) in the test on ACHN; 41.9 µM (inactive) in the test with NCI/ADR-RES; 43.2 µM (inactive) with UO-31; 27.5 µM (inactive) in the test with MOLT-4; 77.6 µM (inactive) with SNB-19; 17.6 µM (inactive) in the test on MDA-N. Also, the GI50 is > 100 µM (inactive) in the test with OVCAR-5; 37.8 µM (inactive) with CCRF-CEM; 18 µM (inactive) in the test with SNB-75; 24.1 µM (inactive) with UACC-62; 41.2 µM (inactive) in the test with DU-145; 28.8 µM (inactive) in the test on A498. For the same molecule, the GI50 in the test on HT-29 is 45.2 µM (inactive); in the test on BT-549 it was 47.9 µM (inactive); in the test with SF-268 it was 41.4 µM (inactive); in the test on HCT-116 it was 30.1 µM (inactive); in the test with LOX IMVI it was 37.8 µM (inactive).
Take `NC(=O)N/N=C(\Cc1cc(=O)oc2cc(O)ccc12)C(=O)Nc1ccccc1C(N)=O`: the GI50 with ACHN, with NCI/ADR-RES, with UO-31, with MOLT-4, with RXF 393 and with OVCAR-3 was > 100 µM (inactive) in each case. Besides, the GI50 in the test with SNB-19, with MDA-N, in the test on OVCAR-5, with CCRF-CEM, in the test with NCI-H460 and with SNB-75 was > 100 µM (inactive) each time. Further, the GI50 in the test with UACC-62, in the test with DU-145, in the test with HT-29, with BT-549, in the test with SF-268 and in the test on HCT-116 was > 100 µM (inactive) in each case. In the test with LOX IMVI, the GI50 was > 100 µM (inactive).
As for `Clc1ccc(/C=N/c2ccc(Oc3ccc(Cl)cc3)c(Cl)c2)cc1`, the GI50 in the test on ACHN is 34.1 µM (inactive); in the test with NCI/ADR-RES, 20.8 µM (inactive); in the test on UO-31, 11.5 µM (inactive); in the test with MOLT-4, 25.5 µM (inactive); in the test on OVCAR-3 it was 16.9 µM (inactive); in the test with SNB-19, 23 µM (inactive). Further, the GI50 with MDA-N is 19.1 µM (inactive); with OVCAR-5, > 100 µM (inactive); with CCRF-CEM it was 15.8 µM (inactive); in the test on NCI-H460, 21.5 µM (inactive); in the test with SNB-75, 22.5 µM (inactive); in the test on UACC-62, 19.8 µM (inactive). Also, the GI50 is 30.8 µM (inactive) in the test with DU-145; 23.7 µM (inactive) with HT-29; 21.7 µM (inactive) with BT-549; 17.5 µM (inactive) with SF-268; 17.9 µM (inactive) with HCT-116; 18.8 µM (inactive) in the test on LOX IMVI.
With `CS(=N)(=O)CCC(N)P(=O)(O)O` (stereo unspecified), the GI50 in the test with ACHN, in the test with NCI/ADR-RES, in the test on UO-31, in the test with MOLT-4, with RXF 393 and in the test with OVCAR-3 was > 100 µM (inactive) throughout. For the same molecule, the GI50 with SNB-19, in the test on MDA-N, in the test with OVCAR-5, in the test on NCI-H460, in the test on UACC-62 and in the test on DU-145 was > 100 µM (inactive) each time. The GI50 with A498, with HT-29, in the test with BT-549, in the test on SF-268, in the test with HCT-116 and with LOX IMVI was > 100 µM (inactive) in each case.
Take `COC(CN(C)C(=O)C(C)NC(=O)c1ccccc1)OC` (stereo unspecified): the GI50 in the test with ACHN, in the test with NCI/ADR-RES, in the test with MOLT-4, in the test with RXF 393, in the test on MDA-N and in the test on OVCAR-5 was > 100 µM (inactive) throughout. Besides, the GI50 in the test on CCRF-CEM, in the test with NCI-H460, with SNB-75, in the test on UACC-62, with DU-145 and in the test on HT-29 was > 100 µM (inactive) in each case. Besides, the GI50 in the test with BT-549, with SF-268 and with HCT-116 was > 100 µM (inactive) in each case.
Take `COc1ccc(/C=C\c2cc(OC)c(OC)c(OC)c2)cc1OC(=O)CCC(=O)O`: the GI50 was < 0.0001 µM (active) with ACHN; < 0.0001 µM (active) in the test with NCI/ADR-RES; 1.34 µM (inactive) in the test on UO-31; < 0.0001 µM (active) with MOLT-4; < 0.0001 µM (active) with OVCAR-3; < 0.0001 µM (active) with SNB-19. Further, the GI50 with MDA-N was < 0.0001 µM (active); in the test on CCRF-CEM, < 0.0001 µM (active); in the test with NCI-H460, < 0.0001 µM (active); in the test with SNB-75 it was 43 µM (inactive); in the test with UACC-62 it was < 0.0001 µM (active); in the test with DU-145 it was < 0.0001 µM (active). The GI50 in the test with A498 was 0.067 µM (active); with HT-29, 0.774 µM (active); in the test with BT-549, 25.8 µM (inactive); in the test with SF-268 it was < 0.0001 µM (active); in the test with HCT-116 it was < 0.0001 µM (active); in the test with LOX IMVI, < 0.0001 µM (active).
